Data as given in patent US8338565B2, “Macrocyclic compounds for inhibition of tumor necrosis factor alpha” (Ensemble Therapeutics Corporation, priority 2008, dated 2012).
Numbered stars: 1 amine (or outer) side, 2 acyl side, 3 side chain; on linkers, the order of the positions; unused ones are H or OH. Bridge positions count the residues as written; N and C are the ends. Square brackets hold non-standard residues; d marks the D form. Peptide text beside a SMILES is read from it. Phe(4-CF3) = N[C@@H](Cc1ccc(C(F)(F)F)cc1)C(=O)O; Bip = N[C@@H](Cc1ccc(-c2ccccc2)cc1)C(=O)O; dBip = N[C@H](Cc1ccc(-c2ccccc2)cc1)C(=O)O; dPhe(4-NH2) = Nc1ccc(C[C@@H](N)C(=O)O)cc1; Phe(4-NH2) = Nc1ccc(C[C@H](N)C(=O)O)cc1; d(hPhe) = N[C@H](CCc1ccccc1)C(=O)O; 2Thi = N[C@@H](Cc1cccs1)C(=O)O; d2Thi = N[C@H](Cc1cccs1)C(=O)O; Suc = O=C(CCC(=O)[*:2])[*:1]

Assays:
[1] = target: T1, TNFα / TNFα receptor (TNFα R1/Fc) (Homo sapiens, UniProt P01375); experiment: Inhibition of binding of TNFα to the TNFα receptor (plate ELISA competition); details: Table 2; read-out: Activity (IC50, inhibition of TNFα binding to TNFα R1/Fc)
T1 construct: purchased R&D Systems
In short: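 Plates were coated with TNFα at 15 nM. Test compound and 8.33 nM receptor-Fc (PBST, 2% DMSO) were first mixed in solution for 30 min at room temperature, then transferred to the plates for another 30 min. Competition was read by absorbance at 450 nm after HRP anti-human IgG Fc detection with TMB.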

rat paw edema model = experiment: Rat paw edema model (carrageenan), anti-inflammatory activity; assay type: in vivo, Sprague-Dawley (SD) rats
Description: Compounds 3, 4, 10 and 202 were tested in a rat paw edema model to determine anti-inflammatory activity. Seven groups (one for Vehicle A [15 mL PEG400, 3 mL Graves Grain alcohol (190 proof), 1.8 mL dimethylacetamide and 10.2 mL deionized water] alone as a negative control, one for Vehicle B [0.1M NaHCO3] alone as a negative control, one for each of the four test compounds dissolved in Vehicle A, and one for indomethacin dissolved in Vehicle B as a positive control), each group containing six Sprague-Dawley (SD) rats (180-200 g) randomized by weight. Initial paw volumes were measured by placing the right hind limb of the rat up to the top of the hock in a beaker of water sitting on a scale that had been tared to zero and recording the readout.
Rats were pre-treated with either i) one of the test compounds, or ii) a positive or negative control. Vehicle A alone and test compound dissolved in Vehicle A (Compound 3-1.0 mg/kg; Compound 4-0.4 mg/kg; Compound 10-0.5 mg/kg; Compound 202-0.3 mg/kg) were administered by intravenous injection. Vehicle B alone and indomethacin (5 mg/kg in 0.1M NaHCO3) was administered by intraperitoneal injection. Thirty minutes after this pretreatment, rats were anesthetized and injected with 0.1 mL of carrageenan (10 mg/mL in water) in the subplantar region of the right hind foot using a ½ inch 26 gauge needle attached to a 1 cc syringe.
At 2, 4 and 6 hours post-carrageenan injection, the right hind foot of each rat was measured for paw volume as described above.
We next investigated the effect of varying intravenous doses of Compound 202 (0.05, 0.10, 0.30, and 1.00 mg/kg) in the same model using the same protocol (6 rats per group). […] We also investigated the affect of oral dosing (10 mg/kg) of Compound 202 in the same model. For oral dosing, a 2.5 mg/mL suspension of Compound 202 was prepared in Vehicle A. Rats were orally administered 4 mL/kg of that suspension.

[2] = tested on: TNF-α (degradation of IkB in HeLa cells or A431 cells); experiment: Human cell-based assay: inhibition of TNF-α induced degradation of IkB; details: HeLa or A431 cells; for inhibition at 5 µM: 5 μM compound, read-out: Inhibition at Various Compound Concentrations, 5 μM; for inhibition at 10 µM: 10 μM compound, read-out: Inhibition at Various Compound Concentrations, 10 μM
[3] = Table 4, 1 mg/kg IV, 2 h post-carrageenan
[4] = Table 4, 1 mg/kg IV, 4 h post-carrageenan
[5] = Table 4, 1 mg/kg IV, 6 h post-carrageenan
[6] = Table 8, 1 mg/kg IV, 2 h post-carrageenan
[7] = Table 8, 1 mg/kg IV, 4 h post-carrageenan
[8] = Table 8, 1 mg/kg IV, 6 h post-carrageenan

T1 sequence (P01375 77-233 limits assumed, species assumed): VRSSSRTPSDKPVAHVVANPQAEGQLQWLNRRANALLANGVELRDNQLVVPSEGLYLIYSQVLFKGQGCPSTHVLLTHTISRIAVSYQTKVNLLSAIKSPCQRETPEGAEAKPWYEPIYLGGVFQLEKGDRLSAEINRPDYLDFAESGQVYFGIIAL

O=C1CCC(=O)N[C@H](CCc2ccccc2)C(=O)N[C@@H](Cc2ccc(C(F)(F)F)cc2)C(=O)N[C@H](Cc2ccccc2)C(=O)N[C@@H](C(=O)O)Cc2ccc(cc2)N1 [Compound 3] ([d(hPhe)][Phe(4-CF3)][dF][dPhe(4-NH2)]-OH; linker N-4 via Suc)
IC50 [1]: 10 to 30 µM | Change in Paw Volume (rat paw edema model; Table 3, 1.0 mg/kg IV, 2 h post-carrageenan): 0.69 ± 0.14 mL | Change in Paw Volume (rat paw edema model; Table 3, 1.0 mg/kg IV, 4 h post-carrageenan): 1.16 ± 0.32 mL | Change in Paw Volume (rat paw edema model; Table 3, 1.0 mg/kg IV, 6 h post-carrageenan): 1.22 ± 0.31 mL | inhibition at 5 µM [2]: < 10% | inhibition at 10 µM [2]: < 10%

O=C(O)[C@@H]1Cc2ccc(cc2)NC(=O)[C@H](O)[C@@H](O)C(=O)N[C@H](Cc2cccs2)C(=O)N[C@@H](Cc2ccc(-c3ccccc3)cc2)C(=O)N[C@H](Cc2ccccc2)C(=O)N1 [Compound 4]
IC50 [1]: 10 to 30 µM | Change in Paw Volume (rat paw edema model; Table 3, 0.4 mg/kg IV, 2 h post-carrageenan): 0.72 ± 0.13 mL | Change in Paw Volume (rat paw edema model; Table 3, 0.4 mg/kg IV, 4 h post-carrageenan): 1.16 ± 0.16 mL | Change in Paw Volume (rat paw edema model; Table 3, 0.4 mg/kg IV, 6 h post-carrageenan): 1.16 ± 0.25 mL | inhibition at 10 µM [2]: < 10%

O=C1CCC(=O)N[C@H](Cc2cccs2)C(=O)N[C@@H](Cc2ccc(-c3ccccc3)cc2)C(=O)N[C@H](Cc2ccccc2)C(=O)N[C@H](C(=O)N[C@@H](Cc2ccccc2)C(=O)O)Cc2ccc(cc2)N1 [Compound 10] ([d2Thi][Bip][dF][Phe(4-NH2)]F-OH; linker N-4 via Suc)
IC50 [1]: 10 to 30 µM | Change in Paw Volume (rat paw edema model; Table 3, 0.5 mg/kg IV, 2 h post-carrageenan): 0.54 ± 0.23 mL | Change in Paw Volume (rat paw edema model; Table 3, 0.5 mg/kg IV, 4 h post-carrageenan): 1.11 ± 0.31 mL | Change in Paw Volume (rat paw edema model; Table 3, 0.5 mg/kg IV, 6 h post-carrageenan): 1.23 ± 0.28 mL | inhibition at 25 µM ([2]; 25 μM compound, read-out: Inhibition at Various Compound Concentrations, 25 μM): > 80%

O=C1CCC(=O)N[C@H](CCc2ccccc2)C(=O)N[C@@H](Cc2ccc(C(F)(F)F)cc2)C(=O)N[C@H](Cc2ccccc2)C(=O)N[C@H](C(=O)N[C@@H](Cc2ccccc2)C(=O)O)Cc2ccc(cc2)N1 [Compound 11] ([d(hPhe)][Phe(4-CF3)][dF][Phe(4-NH2)]F-OH; linker N-4 via Suc)
IC50 [1]: < 10 µM | Change in Paw Volume (rat paw edema model; [3]): 1.37 ± 0.16 mL | Change in Paw Volume (rat paw edema model; [4]): 1.43 ± 0.13 mL | Change in Paw Volume (rat paw edema model; [5]): 1.45 ± 0.08 mL | inhibition at 5 µM [2]: 10 to 50% | inhibition at 10 µM [2]: 50 to 80%

O=C1CCC(=O)N[C@H](Cc2cccs2)C(=O)N[C@@H](Cc2ccc(-c3ccccc3)cc2)C(=O)N[C@H](Cc2ccccc2)C(=O)N[C@H](C(=O)N[C@H](Cc2ccccc2)C(=O)O)Cc2ccc(cc2)N1 [Compound 33] ([d2Thi][Bip][dF][Phe(4-NH2)][dF]-OH; linker N-4 via Suc)
IC50 [1]: < 10 µM | Change in Paw Volume (rat paw edema model; [3]): 1.10 ± 0.22 mL | Change in Paw Volume (rat paw edema model; [4]): 1.49 ± 0.11 mL | Change in Paw Volume (rat paw edema model; [5]): 1.46 ± 0.07 mL | inhibition at 5 µM [2]: 10 to 50% | inhibition at 10 µM [2]: 50 to 80%

O=C1CCC(=O)N[C@@H](Cc2cccs2)C(=O)N[C@H](Cc2ccc(-c3ccccc3)cc2)C(=O)N[C@@H](Cc2ccccc2)C(=O)N[C@H](C(=O)O)Cc2ccc(cc2)N1 [Compound 493] ([2Thi][dBip]F[Phe(4-NH2)]-OH; linker N-4 via Suc)
IC50 [1]: < 10 µM | Change in Paw Volume (rat paw edema model; [6]): 1.04 ± 0.15 mL | Change in Paw Volume (rat paw edema model; [7]): 1.12 ± 0.10 mL | Change in Paw Volume (rat paw edema model; [8]): 1.03 ± 0.15 mL

O=C1CCC(=O)N[C@@H](Cc2cccs2)C(=O)N[C@H](Cc2ccc(-c3ccccc3)cc2)C(=O)N[C@@H](Cc2ccccc2)C(=O)N[C@@H](C(=O)O)Cc2ccc(cc2)N1 [Compound 500] ([2Thi][dBip]F[dPhe(4-NH2)]-OH; linker N-4 via Suc)
IC50 [1]: 10 to 30 µM | Change in Paw Volume (rat paw edema model; [6]): 0.98 ± 0.24 mL | Change in Paw Volume (rat paw edema model; [7]): 1.07 ± 0.21 mL | Change in Paw Volume (rat paw edema model; [8]): 0.98 ± 0.14 mL

O=C1COc2ccc(cc2)C[C@@H](C(=O)O)NC(=O)[C@H](CCc2ccccc2)NC(=O)[C@@H](Cc2ccc(-c3ccccc3)cc2)NC(=O)[C@H](Cc2ccncc2)N1 [Compound 506]
IC50 [1]: < 10 µM | Change in Paw Volume (rat paw edema model; Table 5, 1 mg/kg IV, 2 h post-carrageenan): 0.74 ± 0.18 mL | Change in Paw Volume (rat paw edema model; Table 5, 1 mg/kg IV, 4 h post-carrageenan): 1.05 ± 0.17 mL | Change in Paw Volume (rat paw edema model; Table 5, 1 mg/kg IV, 6 h post-carrageenan): 0.86 ± 0.15 mL

COc1ccc2c(c1)c(CC(=O)O)c(C)n2C(=O)c1ccc(Cl)cc1 [indomethacin, reference compound]
Change in Paw Volume (rat paw edema model; Table 3, positive control 5 mg/kg IP, 2 h post-carrageenan): 0.61 ± 0.10 mL | Change in Paw Volume (rat paw edema model; Table 3, positive control 5 mg/kg IP, 4 h post-carrageenan): 0.92 ± 0.12 mL | Change in Paw Volume (rat paw edema model; Table 3, positive control 5 mg/kg IP, 6 h post-carrageenan): 0.99 ± 0.10 mL | Change in Paw Volume (rat paw edema model; Table 4, positive control IP (5 mg/kg), 2 h post-carrageenan): 0.61 ± 0.08 mL | Change in Paw Volume (rat paw edema model; Table 4, positive control IP (5 mg/kg), 4 h post-carrageenan): 0.82 ± 0.05 mL | Change in Paw Volume (rat paw edema model; Table 4, positive control IP (5 mg/kg), 6 h post-carrageenan): 0.90 ± 0.11 mL | Change in Paw Volume (rat paw edema model; Table 5, positive control IP (5 mg/kg), 2 h post-carrageenan): 0.82 ± 0.08 mL | Change in Paw Volume (rat paw edema model; Table 5, positive control IP (5 mg/kg), 4 h post-carrageenan): 0.94 ± 0.10 mL | Change in Paw Volume (rat paw edema model; Table 5, positive control IP (5 mg/kg), 6 h post-carrageenan): 0.87 ± 0.11 mL | Change in Paw Volume (rat paw edema model; Table 6, positive control IP (5 mg/kg), 2 h post-carrageenan): 0.63 ± 0.08 mL | Change in Paw Volume (rat paw edema model; Table 6, positive control IP (5 mg/kg), 4 h post-carrageenan): 0.79 ± 0.17 mL | Change in Paw Volume (rat paw edema model; Table 6, positive control IP (5 mg/kg), 6 h post-carrageenan): 0.82 ± 0.21 mL | Change in Paw Volume (rat paw edema model; Table 7, positive control IP (5 mg/kg), 2 h post-carrageenan): 0.75 ± 0.14 mL | Change in Paw Volume (rat paw edema model; Table 7, positive control IP (5 mg/kg), 4 h post-carrageenan): 1.02 ± 0.09 mL | Change in Paw Volume (rat paw edema model; Table 7, positive control IP (5 mg/kg), 6 h post-carrageenan): 1.07 ± 0.08 mL | Change in Paw Volume (rat paw edema model; Table 8, positive control IP (5 mg/kg), 2 h post-carrageenan): 0.76 ± 0.13 mL | Change in Paw Volume (rat paw edema model; Table 8, positive control IP (5 mg/kg), 4 h post-carrageenan): 0.92 ± 0.09 mL | Change in Paw Volume (rat paw edema model; Table 8, positive control IP (5 mg/kg), 6 h post-carrageenan): 0.74 ± 0.08 mL | Change in Paw Volume (rat paw edema model; Table 9, positive control IP (5 mg/kg), 2 h post-carrageenan): 0.75 ± 0.14 mL | Change in Paw Volume (rat paw edema model; Table 9, positive control IP (5 mg/kg), 4 h post-carrageenan): 1.02 ± 0.09 mL | Change in Paw Volume (rat paw edema model; Table 9, positive control IP (5 mg/kg), 6 h post-carrageenan): 1.07 ± 0.08 mL | Change in Paw Volume (rat paw edema model; Table 10, positive control IP (5 mg/kg), 2 h post-carrageenan): 0.63 ± 0.08 mL | Change in Paw Volume (rat paw edema model; Table 10, positive control IP (5 mg/kg), 4 h post-carrageenan): 0.79 ± 0.17 mL | Change in Paw Volume (rat paw edema model; Table 10, positive control IP (5 mg/kg), 6 h post-carrageenan): 0.82 ± 0.21 mL
